Consider 22 compounds from patent publication US8552031B2, “3-ethylidenehydrazino substituted heterocyclic compounds as thrombopoietin receptor activators” (Nissan Chemical Industries, Ltd., priority 2004, dated 2013).

This test concerns the target T1, human TPO receptor (c-mp1) (Homo sapiens, UniProt P40238).
T1 construct: expressed in transfected cells
T1 sequence (P40238 26-635): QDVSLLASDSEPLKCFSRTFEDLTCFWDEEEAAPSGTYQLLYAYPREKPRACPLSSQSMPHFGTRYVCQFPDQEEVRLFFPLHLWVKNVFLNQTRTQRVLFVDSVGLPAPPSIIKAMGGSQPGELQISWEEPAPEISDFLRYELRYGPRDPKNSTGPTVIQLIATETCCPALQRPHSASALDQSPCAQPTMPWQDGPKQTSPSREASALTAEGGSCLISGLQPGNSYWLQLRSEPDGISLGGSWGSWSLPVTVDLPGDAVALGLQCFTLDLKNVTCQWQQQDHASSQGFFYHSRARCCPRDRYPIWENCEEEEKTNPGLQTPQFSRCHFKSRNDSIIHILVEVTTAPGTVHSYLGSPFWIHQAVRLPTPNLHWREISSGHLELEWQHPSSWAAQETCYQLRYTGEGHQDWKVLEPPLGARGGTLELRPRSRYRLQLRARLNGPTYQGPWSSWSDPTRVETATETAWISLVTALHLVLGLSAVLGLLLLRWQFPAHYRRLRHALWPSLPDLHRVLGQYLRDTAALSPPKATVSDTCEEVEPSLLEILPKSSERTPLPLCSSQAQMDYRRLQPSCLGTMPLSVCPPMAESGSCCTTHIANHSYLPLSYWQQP
Nature of the test: Stimulation of proliferation of TPO-dependent cell line UT7/EPO-mpl (WST-8). Type of test: cell-based. Conditions: concentration that yields a growth rate corresponding to 50% of the growth of UT-7/EPO-mpl observed in the presence of 10 ng/ml TPO; 4 days incubation; read-out: EC50 (converted). The procedure: The reactivity of the compound of Synthetic Example 4 of the present invention with thrombopoietin (TPO) receptor was assayed using a human leukemic cell line, UT7/EPO-mpl.
UT7/EPO-mpl is a stable transformed cell line obtained by introducing into human leukemic cell line UT7/EPO a vector that induces expression of human TPO receptor (c-mp1) under control of cytomegalovirus immediate-early promoter by the method of Takatoku et al. (J. Biol. Chem., 272:7259-7263 (1997)). […] These two cell lines were subcultured in Iscove's modified Dulbecco's medium (IMDM; GIBCO) containing 10% fetal bovine serum (FBS; Thermo Electron or BioWest) using a CO2 incubator (5% CO2, 37° C.).
The subcultured cells described above were washed twice with phosphate buffered saline (PBS) and suspended in IMDM containing 10% FBS at a cell density of 6×10^4 cells/ml. The cell suspension was transferred to a 96-well tissue culture plate (CORNING) in 100-μl aliquots. Then either TPO (Pepro Tech EC) or the compound of Synthetic Example 4 dissolved in dimethyl sulfoxide (DMSO) was diluted 83-fold with IMDM containing 10% FBS and added to the aforementioned cell suspension in 20-μl aliquots. The cell suspension was incubated in a CO2 incubator (5% CO2, 37° C.) for 4 days. Cell proliferation was assayed using WST-8 reagent (Kishida Chemical Co., Ltd.) according to instructions by the manufacturer. A 10-μl aliquot of 5 mM WST-8 reagent solution was added to each well of the tissue culture plate, and the plate was incubated at 37° C. for 4 h. The formazan pigment generated was detected by measuring the absorbance at 450 nm with a 96-well microplate reader (Nihon Molecular Devices, Spectramax 190).
The compounds of the following Synthetic Examples were tested according to the method of Assay Example 1 to determine the concentration of each compound that yields a growth rate corresponding to 50% of the growth of human leukemic cell line UT-7/EPO-mpl observed in the presence of 10 ng/ml TPO (EC50).
A word on the EC50: it is the concentration that produces a half-maximal response. For `CC(=NNC(=S)N1CCC(C(=O)O)CC1)c1csc(-c2ccc(OC(F)(F)F)cc2)c1O` [Synthetic Example 11, 1-{1-[5-(4-trifluoromethoxyphenyl)-4-hydroxythiophen-3-yl]-ethylidene-hydrazinothiocarbonyl}-piperidine-4-carboxylic acid], the EC50 is 5.95 nM.
The result for `COCCNC(=S)NN=C(C)c1csc(-c2ccc(Cl)c(Cl)c2)c1O` [Synthetic Example 7, 1-(2-{1-[5-(3,4-dichlorophenyl)-4-hydroxythiophen-3-yl]-ethylidene}-hydrazinocarbonothioyl)amino-2-methoxyethane] reads 66.9 nM; that for `CC(=NNC(=S)N1CCC(C(=O)O)CC1)c1csc(-c2ccc(Br)cc2)c1O` [Synthetic Example 9, 1-{1-[5-(4-bromophenyl)-4-hydroxy-thiophen-3-yl]-ethylidene-hydrazinothiocarbonyl}-piperidin-4-carboxylic acid], 4.77 nM; that for `CC(=NNC(=S)N1CCC(C(=O)O)CC1)c1csc(-c2ccc(C)c(C)c2)c1O` [Synthetic Example 13, 1-{1-[5-(3,4-dimethylphenyl)-4-hydroxythiophen-3-yl]-ethylidene-hydrazinothiocarbonyl}-piperidine-4-carboxylic acid], 6.02 nM.
The result for `CC(=NNC(=S)N1CCC(O)CC1)c1csc(-c2ccc(Cl)c(Cl)c2)c1O` [Synthetic Example 20, 1-{1-[5-(3,4-dichlorophenyl)-4-hydroxythiophen-3-yl]-ethylidene-hydrazinothiocarbonyl}-piperidin-4-ol] reads 6.98 nM; that for `CC(=NNC(=S)N1CCC(C(=O)O)CC1)c1csc(-c2ccc(C(C)(C)C)cc2)c1O` [Synthetic Example 14, 1-{1-[5-(4-t-butylphenyl)-4-hydroxy-thiophen-3-yl]-ethylidene-hydrazinothiocarbonyl}-piperidine-4-carboxylic acid], 5.66 nM; that for `COC(=O)C1CCN(C(=S)NN=C(C)c2csc(-c3ccc(Br)cc3)c2O)CC1` [Synthetic Example 8, methyl 1-{1-[5-(4-bromophenyl)-4-hydroxy-thiophen-3-yl]-ethylidene-hydrazinothiocarbonyl}-piperidine-4-carboxylate], 50.4 nM.
For `CC(=NNC(=S)N1CCCC(O)C1)c1csc(-c2ccc(Cl)c(Cl)c2)c1O` (stereo not shown) [Synthetic Example 21, 1-{1-[5-(3,4-dichlorophenyl)-4-hydroxythiophen-3-yl]-ethylidene-hydrazinothiocarbonyl}-piperidin-3-ol] the value was 51.8 nM; for `COC(=O)C1CCN(C(=S)NN=C(C)c2csc(-c3ccc(Cl)c(Cl)c3)c2O)CC1` [Synthetic Example 1, methyl 1-{1-[5-(3,4-dichlorophenyl)-4-hydroxythiophen-3-yl]-ethylidene-hydrazinothiocarbonyl}-piperidine-4-carboxylate], 63.7 nM; for `CC(=NNC(=S)N1CCC(C(=O)O)CC1)c1csc(-c2ccc(C(F)(F)F)cc2)c1O` [Synthetic Example 10, 1-{1-[4-hydroxy-5-(4-trifluoromethylphenyl)-thiophen-3-yl]-ethylidene-hydrazinothiocarbonyl}-piperidine-4-carboxylic acid], 5.73 nM.
With `COCCCNC(=S)NN=C(C)c1csc(-c2ccc(Cl)c(Cl)c2)c1O` [Synthetic Example 23, 1-(2-{1-[5-(3,4-dichlorophenyl)-4-hydroxythiophen-3-yl]-ethylidene}-hydrazinocarbonothioyl)amino-3-methoxypropane], the EC50 is 76.3 nM.
The result for `CC(=NNC(=S)N1CCC(C(=O)O)CC1)c1csc(-c2cccc(Cl)c2)c1O` [Synthetic Example 15, 1-{1-[5-(3-chlorophenyl)-4-hydroxythiophen-3-yl]-ethylidene-hydrazinothiocarbonyl}-piperidine-4-carboxylic acid] reads 5.94 nM; that for `COC(=O)CNC(=S)NN=C(C)c1csc(-c2ccc(Cl)c(Cl)c2)c1O` [Synthetic Example 3, methyl 2-[(2-{1-[5-(3,4-dichlorophenyl)-4-hydroxythiophen-3-yl]-ethylidene}-hydrazinocarbonothioyl)amino]acetate], 55.5 nM; that for `CC(=NNC(=S)NCCC(=O)O)c1csc(-c2ccc(Cl)c(Cl)c2)c1O` [Synthetic Example 6, 3-[(2-{1-[5-(3,4-dichlorophenyl)-4-hydroxythiophen-3-yl]-ethylidene}-hydrazinocarbonothioyl)amino]propionic acid], 32.4 nM.
The result for `CC(=NNC(=S)N1CCC(C(=O)O)CC1)c1nn(C)c(-c2ccc(Cl)c(Cl)c2)c1O` [Synthetic Example 17, 1-{1-[5-(3,4-dichlorophenyl)-4-hydroxy-1-methyl-1H-pyrazol-3-yl]-ethylidene-hydrazinothiocarbonyl}-piperidine-4-carboxylic acid] reads 16.6 nM; that for `CC(=NNC(=S)N1CCC(CO)CC1)c1csc(-c2ccc(Cl)c(Cl)c2)c1O` [Synthetic Example 22, 1-{1-[5-(3,4-dichlorophenyl)-4-hydroxythiophen-3-yl]-ethylidene-hydrazinothiocarbonyl}-piperidine-4-methanol], 45.8 nM.
For `CC(=NNC(=S)N1CCC(C(=O)O)CC1)c1csc(-c2ccc(Cl)cc2)c1O` [Synthetic Example 12, 1-{1-[5-(4-chlorophenyl)-4-hydroxy-thiophen-3-yl]-ethilidene-hydrazinothiocarbonyl}-piperidine-4-carboxylic acid] the value was 4.79 nM.
Regarding `CCN(CC)C(=O)C1CCN(C(=S)NN=C(C)c2csc(-c3ccc(Cl)c(Cl)c3)c2O)CC1` [Synthetic Example 19, 1-{1-[5-(3,4-dichlorophenyl)-4-hydroxythiophen-3-yl]-ethylidene-hydrazinothiocarbonyl}-piperidine-4-carboxylic acid diethylamide], the EC50 is 49.3 nM.
For `CC(=NNC(=S)N1CCCC(C(=O)O)C1)c1csc(-c2ccc(Cl)c(Cl)c2)c1O` (stereo not shown) [Synthetic Example 18, 1-{1-[5-(3,4-dichlorophenyl)-4-hydroxythiophen-3-yl]-ethylidene-hydrazinothiocarbonyl}-piperidine-3-carboxylic acid] the value was 46.6 nM.
The result for `COC(=O)CCNC(=S)NN=C(C)c1csc(-c2ccc(Cl)c(Cl)c2)c1O` [Synthetic Example 5, methyl 3-[(2-{1-[5-(3,4-dichlorophenyl)-4-hydroxythiophen-3-yl]-ethylidene}-hydrazinocarbonothioyl)amino]propionate] reads 67.2 nM.
The result for `CC(=NNC(=S)N1CCC(C(=O)O)CC1)c1nn(C)c(-c2ccc(C(F)(F)F)cc2)c1O` [Synthetic Example 16, 1-{1-[4-hydroxy-1-methyl-5-(4-trifluoromethylphenyl)-1H-pyrazol-3-yl]-ethylidene-hydrazinothiocarbonyl}-piperidine-4-carboxylic acid] reads 8.09 nM.
Consider `CC(=NNC(=S)N1CCC(C(=O)O)CC1)c1csc(-c2ccc(Cl)c(Cl)c2)c1O` [Synthetic Example 2, 1-{1-[5-(3,4-dichlorophenyl)-4-hydroxythiophen-3-yl]-ethylidene-hydrazinothiocarbonyl}-piperidine-4-carboxylic acid], for which the EC50 was 6.77 nM.
